Results from patent publication US20240361338A1, “DIAGNOSIS AND TREATMENT OF ECTOPIC ENDOMETRIOSIS” (FERRING B.V., priority 2021, published 2024).

How the values were obtained:
eutopic E-MSCs = assay: Matrigel transwell invasion assay, eutopic E-MSCs; assay type: cell-based, human; conditions: 100 nM, 48 h, vs untreated
Method: FIG. 4: Quinagolide effect on EMSCs invasion. A and B: Representative micrographs (A) and quantification (B) of quinagolide effect (100 nM) on eutopic and ectopic (both ovarian and peritoneal) EMSCs invasion (original magnification: ×100). C: Concentration response effect of quinagolide treated ectopic EMSCs invasion. D and E: Quantification (D) and representative micrographs (E) (original magnification: ×100) of invasion assays performed on ectopic EMSCs (both ovarian and peritoneal), treated with 100 nM quinagolide (Q100 nM), 5 μM spiperone(S) or a combination of quinagolide and spiperone (S+Q100 nM). All invasion data are represented as mean±SD of at least three independent experiments, performed on different EMSC lines, and normalized to untreated cells (CTL). One-way ANova was performed: *=p<0.05 and **=p<0.001 vs CTL. Quinagolide powder (provided by Ferring Pharmaceuticals) was stored at 4° C. and resuspended in dimethylsulphoxide (DMSO) to a stock solution of 1 mM immediately before use. Spiperone powder (Sigma-Aldrich) was resuspended in water to a stock concentration of 1 mM and stored at −20° C. […] At least five pictures per transwell were acquired (original magnification: 100×), and the percentage of transwell area covered by invaded EMSCs was quantitatively measured by ImageJ software.

endometriotic lesions = conditions: patients with severe endometriosis and hyperprolactinemia (Gomez et al, 2011); cited from earlier work
ectopic E-MSCs = assay: Endothelial differentiation (CD31) of ectopic E-MSCs in co-culture with HUVECs; assay type: cell-based, human; conditions: ectopic E-MSCs, 100 nM, 24-h treatment, 48 h co-culture with HUVECs
Method: FIG. 5: Quinagolide effect on EMSCs endothelial differentiation. A. FACS gating-strategy for the analysis of CD31^+ EMSCs after direct 48 h co-culture with HUVECs. EMSCs are gated as GFP negative population, and CD31 expression is evaluated on the described gated EMSCs after 48 h co-culture with HUVECs as percentage of CD31 APC positive events. B, C and D: Representative flow cytometry micrographs and quantification, expressed as percentage of variation respect to control co-culture, of the effect of 24 h treatment of EMSCs with 25 μM cabergoline, 1 μM sorafenib, 1 μM cabozantinib (B), 100 nM quinagolide (C) and the combination of 5 μM spiperone and 100 nM quinagolide (D) on EMSCs CD31 expression after 48 h of co-culture with HUVECs. Data are represented as mean±SD of at least three independent experiments, performed on different ectopic EMSC lines, and normalized to untreated co-culture. One-way ANova was performed: *=p<0.05 and ***=p<0.001 vs control.
(BSA)-Phosphate Buffered Saline (PBS) (Sigma). For each staining, 100,000 cells were incubated for 20 minutes at 4° C. with FITC, APC or PE-conjugated antibodies against: CD29, CD44, CD73, CD90 (BD Bioscences, Franklin Lakes, NJ, USA); CD31, CD34, CD105, CD140b, CD146, TEK receptor tyrosine kinase (Tie2), Sushi domain-containing protein 2 (SUSD2) (Miltenyi Biotech, Bergisch Gladbach, Germany); CD45 (AbD Serotec, Raleigh, NC, USA), or epithelial cell adhesion molecule (EPCAM) (BioLegend, San Diego, CA, USA). Labelled cells were washed by centrifugation and final pellet was resuspended in 200 μl of 0.1% BSA-PBS before cytofluorimetric analysis. Isotype (Miltenyi Biotec) was used as negative control.
Quinagolide powder (provided by Ferring Pharmaceuticals) was stored at 4° C. and resuspended in dimethylsulphoxide (DMSO) to a stock solution of 1 mM immediately before use. Spiperone powder (Sigma-Aldrich) was resuspended in water to a stock concentration of 1 mM and stored at −20° C. Cabergoline powder (Sigma-Aldrich) was dissolved in DMSO to a stock concentration of 25 mM and stored at −20° C. Sorafenib and cabozantinib (Sigma-Aldrich) were resuspended in DMSO to a final concentration of 10 mM and according to the manufacturer's instructions, and stored at −20° C. and −80° C., respectively. Quinagolide, spiperone and cabergoline were diluted 1:100 (final concentration 100 nM), 1:1000 (final concentration 5 μM) and 1:1000 (final concentration 25 μM) respectively. Quinagolide, cabergoline, sorafenib and cabozantinib and were administered for 24 hours during co-culture experiments, while spiperone was added to culture medium 1 h before quinagolide treatment. For invasion assays, E-MSCs were treated with spiperone 1 h before the cell detachment and quinagolide was added only when cells were plated on Matrigel. […]

## CCCN1C[C@@H](NS(=O)(=O)N(CC)CC)C[C@@H]2Cc3c(O)cccc3C[C@H]21 [quinagolide, N,N-diethyl-N′-[(3S,4aS,10aR)-6-hydroxy-1-propyl-1,2,3,4,4a,5,10,10a-octahydrobenzo[g]quinolin-3-yl]sulfamide]
Eutopic E-MSCs
  invasion of eutopic E-MSC lines: significantly reduced
Endometriotic lesions
  size of endometriotic lesions: reduced the size
Ectopic E-MSCs
  percentage of CD31 expressing E-MSCs after co-culture: significantly reduced
